In publication PMC8157578 (Antioxidants, 2021):

Legend:
[1] = test system: HeLa cells; experiment: Immunofluorescence analysis of intracellular γ-H2AX generation in iron-overloaded HeLa cells (with H2O2); type: cell-based, human; conditions: Fe(II)-H2O2 alone 2.86±0.64
Method: The immortalized human cervical carcinoma HeLa cell line used in this study was obtained from the Cell Resource Center, Peking Union Medical College. The cell line was checked to be free of mycoplasma contamination by PCR and culture. Its species origin was confirmed with PCR. The identity of the cell line was authenticated with STR profiling (FBI, CODIS). HeLa cells were cultured in a DMEM medium (4 mM L-glutamine, 4500 mg/L glucose, and no sodium pyruvate) with 10% fetal bovine serum (FBS) and 1% penicillin–streptomycin at 37 °C under a 5% CO2 atmosphere.
HeLa cells (10^4/well) were loaded by incubation with 20 μM Fe(II) for 2 h at 37 °C. […] For a detailed experimental procedure, please refer to the Supplementary Materials and our previous report. The experiment was repeated three times. The observation of the fluorescence of γ-H2AX in HeLa cells was conducted with a confocal laser scanning microscope (CLSM) (Leica TCS SP). Thirty cells in each group were randomly selected in different microscopic fields for quantitative detection. In detail, each well was equally divided into nine fields and numbered sequentially from the top right corner. Four fields were randomly selected according to a random number table. Thirty cells were then randomly selected from these four fields. All images were analyzed blind regarding exposure parameters, which were coded by one person and read by another who was blinded to the code. The fluorescence intensity of the γ-H2AX signal on selected images was automatically analyzed using the Image-J software. The Statistical Product and Service Solutions (SPSS 21) program was employed to analyze the data through ANOVA. Significant difference from iron-overloaded group are marked with * p < 0.05, ** p < 0.01, and *** p < 0.001.
(§1) 2.1 Immunofluorescence analysis of intracellular γ-H2AX generation in Hela cells
(§2) Fixed cells were permeabilized with 0.25% Triton-X100 in PBS for 10 min and blocked in 10%
(§3) normal goat serum, 0.1% tween 20 in PBS for 1 hour. The cells were incubated with primary
(§4) monoclonal antibody, γ-H2AX (Ser139, 20E3, Rabbit, mAb #9718) (1:600) overnight at 4°C, and then
(§5) stained secondary antibodies, anti-rabbit Alexa-488 and anti-mouse (Cell Signaling Technology) for
(§6) 1 hour. After Hoechst 33342 (10 μg/mL) staining for 2 min, dishes were mounted in ProLong™ Gold
(§7) Antifade Mountant (Invitrogen™) and stored at 4°C in the dark before confocal laser-scanning by
(§8) Broadband Confocal Leica TCS SP5. The CLSM images were obtained with the following excitation
(§9) respectively. Cells were washed 3 times with PBS (200 μL/well) at intervals. […]

[2] = 1-octanol/phosphate buffer partitioning, shake-flask method; type: physicochemical; conditions: 1-octanol / 100 mM phosphate buffer pH 7.4, shake-flask
[3] = test system: HeLa cells; experiment: Auto-fluorescence of HeLa cells after incubation with compound (cell uptake); type: cell-based, human; conditions: HeLa cells incubated two hours, auto-fluorescence Ex ~330 nm, Em ~450 nm
Source text: Subsequently, cells were washed and collected by centrifugation, the fluorescence of cells (105) was monitored by Thermo Scientific Varioskan Flash (Thermo Fisher scientific, USA) ***Significant difference from iron-overloaded group, p < 0.001.

[4] = test system: HeLa cells; experiment: Labile iron pool (LIP) determination with calcein-AM in iron-overloaded HeLa cells, flow cytometry; type: cell-based, human; conditions: 15 min
Method: HeLa cells (10^6/mL) were loaded by incubation with 20 μM Fe(II) for 2 h at 37 °C. Subsequently, cells were collected by centrifugation (1000 rpm for 5 min) and incubated with 0.5 μM calcein-AM for 15 min at 37 °C in a D’hanks buffer of pH 7.4. Cells were then washed twice by D’hanks buffer (pH 7.4) and incubated with or without CAPE and its analogues. The fluorescence was monitored by both flow cytometry (BD FACS Caliber) and a CLSM (Leica TCS SP). The experiment was repeated three times.
Figure 3 Effect of CAPE and its analogues on the LIP level in iron-overloaded cells, as measured by flow cytometry (A–D). HeLa cells were pretreated with 20 μM Fe(II) for 2 h and then incubated with calcein-AM. After 15 min, cells were washed and incubated with or without CAPE and its analogues for 15 min. The fluorescence intensity of cells was measured by flow cytometry. Significant differences from the iron-overloaded group are marked with * p < 0.05, ** p < 0.01, and *** p < 0.001. The experiment was repeated three times.

[5] = test system: HeLa cells; experiment: as above; type: cell-based, human; conditions: 50 μM compound alone, no iron
[6] = test system: plasmid pBR322 DNA; experiment: Plasmid DNA strand breakage induced by Fe(II)–H2O2, agarose gel electrophoresis; type: biochemical; conditions: ratio-dependent
Method: (§10) Plasmid DNA agarose gel electrophoresis was employed to investigate protective effect of CAPE and its analogues against DNA strand breakage induced by an iron-mediated system. For experimental procedure details, please refer to the Supplementary Materials.
as §1, §2, §3, §4, §5, §6, §7, §8, §9
ESR spectra were recorded at room temperature in a Bruker ESR 300 spectrometer. […]
The consumption of O2 was measured by Orion 3 dissolved oxygen meter (Thermo Scientific, […]
Corona Needle current was 3000 nA. The size of data points was recorded in 4 M format. […]

[7] = Cyclic voltammetry of Fe(III) chelated by ligand; type: physicochemical; conditions: 100 mM PB pH 7.4, SCE reference, 2 mV/s; Fe(III) alone approximately −0.65 V
Method: CV was performed in 100 mM PB (pH 7.4) on a Princeton Applied Research (VersaSTAT3) potentiostat with a Pt wire as the counter electrode, a saturated calomel electrode (SCE) as the reference electrode, and a glassy carbon electrode (5 mm in diameter) as the working electrode. The scan rate was 2 mV/s.

[8] = ESR spin-trapping (DMPO) of •OH generated by Fe(III)–citrate–ascorbate–H2O2; type: biochemical; conditions: 100 μM Fe(III)–citrate, 100 μM ascorbate, 1 mM H2O2
Method: The basic system used in this study consisted of Fe(III)/Fe(II), ascorbate, H2O2, and the spin trapping agent DMPO (100 mM) in 20 mM HEPES (pH 7.4) with or without CAPE and its analogues.
The reaction mixture contained 100 μM Fe(III)–citrate, 100 μM ascorbate, and 1 mM H2O2, as well as the indicated concentrations of CAPE and its analogues. The experiments were repeated three times, and only typical spectra are presented.
2.3 Electron spin resonance (ESR) spin-trapping studies
spectrometer parameters were as follows: scan range, 100 G; field set, 3470 G; time constant, 200 ms;
scan time, 100 s; modulation amplitude, 1.0 G; modulation frequency, 100 kHz; receiver gain,

[9] = test system: plasmid pBR322 DNA; experiment: Plasmid DNA strand breakage induced by Fe(III)–citrate/ascorbate/H2O2, agarose gel electrophoresis; type: biochemical; conditions: 20 μM Fe(III)–citrate, 10 μM ascorbate, 200 μM H2O2
Method: as §10
Figure 4 Protective effect of CAPE and its analogues against Fe(III)–citrate–ascorbate–H2O2-induced DNA damage. […] The reaction mixture contained 20 μM Fe(III)–citrate, 10 μM ascorbate, and 200 μM H2O2, as well as the indicated concentrations of CAPE and its analogues. The experiments were repeated three times, and only typical images are presented. […]
The experiments were conducted via incubation of plasmid pBR322 DNA (5 μg/mL) at 37 °C for
30 min in Chelex-treated HEPES buffer (100 mM, pH 7.4) with the iron-containing systems, in the
absence or presence of the indicated concentrations of CAPE and its analogues. […]

LogKow [2]: 2.01 ± 0.02 | Fluorescence inside the cells after incubation (crossing the cell membrane), in words [3]: significantly increase | Reduction potential of Fe(III) chelated by compound [7]: −1.00 V
Compound: O=C(/C=C/c1ccc(O)c(O)c1)OCCc1ccccc1 [CAPE, Caffeic acid phenethyl ester]
Fluorescence intensity of γ-H2AX ([1]; Fe(II)-H2O2 + 2 μM compound): 3.07±0.54 Fold of Control | Fluorescence intensity of γ-H2AX ([1]; Fe(II)-H2O2 + 10 μM compound): 2.71±0.32 Fold of Control | Fluorescence intensity of γ-H2AX ([1]; Fe(II)-H2O2 + 20 μM compound): 1.66±0.46 Fold of Control | Fluorescence intensity of γ-H2AX ([1]; Fe(II)-H2O2 + 50 μM compound): 1.26±0.23 Fold of Control | Fluorescence intensity of calcein-AM (LIP level) ([4]; 20 μM Fe(II) + 2 μM compound, Fe(II) alone 0.64±0.04): 0.65±0.00 Fold of Control | Fluorescence intensity of calcein-AM (LIP level) ([4]; 20 μM Fe(II) + 20 μM compound, Fe(II) alone 0.64±0.04): 0.73±0.02 Fold of Control | Fluorescence intensity of calcein-AM (LIP level) ([4]; 20 μM Fe(II) + 50 μM compound, Fe(II) alone 0.63-0.64): 0.89±0.04 Fold of Control | Fluorescence intensity of calcein-AM (LIP level) [5]: 0.97±0.03 Fold of Control | Inhibition of Fe(II)–H2O2-induced DNA strand breaks, in words [6]: significantly inhibited | Inhibitory effect against Fe(III)-citrate-Vc-H2O2 induced •OH generation, in words [8]: completely inhibited | Concentration with the stated inhibition of Fe(III)-citrate-Vc-H2O2 induced •OH generation ([8]; CAPE completely, CA significantly): 200 µM | Protective effect against Fe(III)–citrate–ascorbate–H2O2-induced DNA damage, in words [9]: significantly inhibited | Concentration range with the stated inhibition of Fe(III)-citrate-Vc-H2O2 induced DNA damage ([9]; CAPE significantly, CA slightly): 40 to 200 µM
